Laboratory results reported in ChEMBL document CHEMBL1201862, “PubChem BioAssay data set” (2004).
The source made the active and inactive calls.

Tests used:
[1] = target: Nuclear receptor subfamily 5 group A member 2 (Homo sapiens, UniProt O00482); type: functional, cell-based;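 further: HEK293T cells transfected with LRH-1 and a StAR promoter luciferase reporter; potency for inhibitors that lower LRH-1 driven reporter light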
[2] = target: Steroidogenic factor 1 (Homo sapiens, UniProt Q13285); experiment: Counterscreen for inverse agonists of the liver receptor homolog-1 (LRH-1; NR5A2): Luminescence-based cell-based high throughput dose response assay to identify inverse agonists of the Steroidogenic Factor 1 Nuclear Receptor (SF1; NR5A1).; type: functional
[3] = StAR promoter reporter inhibition counter-screen, dose response, counter-screen for LRH-1 inverse agonist project, cell-based, luminescence, luciferase reporter (AID 651969); type: functional
[4] = target: T1, Low molecular weight phosphotyrosine protein phosphatase (Homo sapiens, UniProt P24666); type: functional; settings: read-out: IC50_Mean
T1 sequence (P24666 whole entry): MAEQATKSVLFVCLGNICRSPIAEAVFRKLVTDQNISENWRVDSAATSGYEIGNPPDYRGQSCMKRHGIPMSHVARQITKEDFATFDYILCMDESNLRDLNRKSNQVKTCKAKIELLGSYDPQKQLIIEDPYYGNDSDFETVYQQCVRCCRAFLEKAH

[5] = target: T1, Low molecular weight phosphotyrosine protein phosphatase; type: functional; settings: read-out: IC50_Mean; remark: listed apart in the source
[6] = target: T2, Tyrosine-protein phosphatase non-receptor type 22 (Homo sapiens, UniProt Q9Y2R2); experiment: LYP phosphatase inhibition for selectivity, dose response, selectivity assay for LMPTP inhibitor project, biochemical, fluorescence, LYP catalytic domain (AID 652006); type: functional; settings: read-out: IC50_Mean
T2 sequence (Q9Y2R2 whole entry): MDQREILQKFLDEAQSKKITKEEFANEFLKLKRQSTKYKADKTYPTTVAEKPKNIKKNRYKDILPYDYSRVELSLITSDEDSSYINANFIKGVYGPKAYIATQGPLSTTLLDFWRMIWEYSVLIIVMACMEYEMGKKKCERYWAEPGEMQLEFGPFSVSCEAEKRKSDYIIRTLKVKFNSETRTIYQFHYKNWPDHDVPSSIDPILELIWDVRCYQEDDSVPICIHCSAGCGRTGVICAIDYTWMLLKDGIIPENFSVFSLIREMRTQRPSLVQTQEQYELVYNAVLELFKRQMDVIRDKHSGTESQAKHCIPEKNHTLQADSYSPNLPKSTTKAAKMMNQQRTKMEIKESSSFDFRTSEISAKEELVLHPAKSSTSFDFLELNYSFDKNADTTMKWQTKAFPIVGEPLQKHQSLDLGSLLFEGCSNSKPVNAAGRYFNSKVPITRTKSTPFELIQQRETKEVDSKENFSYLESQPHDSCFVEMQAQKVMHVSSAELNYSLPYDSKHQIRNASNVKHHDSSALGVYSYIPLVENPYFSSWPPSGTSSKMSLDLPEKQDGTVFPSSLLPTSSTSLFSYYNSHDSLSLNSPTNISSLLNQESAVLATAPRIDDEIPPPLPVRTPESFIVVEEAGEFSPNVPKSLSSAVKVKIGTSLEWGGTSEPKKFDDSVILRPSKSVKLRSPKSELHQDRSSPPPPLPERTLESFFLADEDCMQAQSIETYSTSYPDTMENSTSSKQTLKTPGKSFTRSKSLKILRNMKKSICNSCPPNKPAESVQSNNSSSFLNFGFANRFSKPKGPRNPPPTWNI

[7] = test system: INS1; experiment: beta cell apoptosis inhibitors, cytokine rescue, dose response, luminescence, retest (AID 449756); type: functional, cell-based; settings: Rattus norvegicus;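 further: cell death triggered by IL-1 beta plus TNF-alpha plus IFN-gamma mixture; protective hits raise ATP signal compared with cytokine alone wells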
[8] = target: T3, Methionyl-tRNA synthetase, putative (Trypanosoma brucei brucei, UniProt Q38C91); type: functional, Trypanosoma brucei brucei strain 927/4 GUTat10.1
[9] = Counterscreen for inhibitors of Trypanosoma brucei methionyl tRNA synthetase (MetRS): Luminescence-based cell-based high throughput dose response assay to identify compounds that are cytotoxic to Jurkat human T lymphocyte cells.; type: functional
[10] = target: T3, Methionyl-tRNA synthetase, putative; type: functional, Trypanosoma brucei brucei strain 927/4 GUTat10.1; remark: listed apart in the source
[11] = target: T4, Heat shock factor protein 1 (Mus musculus, UniProt P38532); experiment: inhibition of MG132-induced HSE-luciferase signal, confirmation, cell-based, NIH3T3, luminescence, dose retest (AID 2382); type: functional;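 further: NIH3T3 fibroblasts with HSF1-driven luciferase reporter stressed by proteasome inhibitor MG132; luminescence from HSF1-driven luciferase expression after 8 hours of MG132 stress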
T4 sequence (P38532 whole entry): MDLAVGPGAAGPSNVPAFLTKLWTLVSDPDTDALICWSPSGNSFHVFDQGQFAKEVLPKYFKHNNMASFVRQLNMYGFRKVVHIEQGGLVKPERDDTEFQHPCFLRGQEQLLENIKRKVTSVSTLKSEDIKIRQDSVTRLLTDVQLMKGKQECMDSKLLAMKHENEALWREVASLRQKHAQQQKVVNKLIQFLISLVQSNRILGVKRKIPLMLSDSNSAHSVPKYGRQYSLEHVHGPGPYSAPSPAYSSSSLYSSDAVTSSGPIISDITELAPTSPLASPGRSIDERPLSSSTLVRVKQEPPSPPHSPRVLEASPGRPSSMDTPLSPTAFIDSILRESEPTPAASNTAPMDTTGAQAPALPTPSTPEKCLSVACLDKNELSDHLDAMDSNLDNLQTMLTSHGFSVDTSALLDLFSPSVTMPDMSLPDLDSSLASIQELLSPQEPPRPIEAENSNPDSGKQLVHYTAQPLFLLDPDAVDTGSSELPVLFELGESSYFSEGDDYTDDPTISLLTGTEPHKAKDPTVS

[12] = target: Neurotensin receptor type 1 (Homo sapiens, UniProt P30989); type: functional;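 further: Image-based confirmatory dose-response assay measuring agonist activity at NTR1; NTR1-expressing U2OS osteosarcoma cells imaged for beta-arrestin GFP spot formation; agonist potency where compounds increase beta-arrestin recruitment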
[13] = target: T5, Replicative DNA helicase DnaB (Mycobacterium tuberculosis, UniProt P9WMR3); experiment: DnaB intein splicing inhibitors, dose response, biochemical, cell-free fluorescence (AID 449749); type: functional
T5 sequence (P9WMR3 whole entry): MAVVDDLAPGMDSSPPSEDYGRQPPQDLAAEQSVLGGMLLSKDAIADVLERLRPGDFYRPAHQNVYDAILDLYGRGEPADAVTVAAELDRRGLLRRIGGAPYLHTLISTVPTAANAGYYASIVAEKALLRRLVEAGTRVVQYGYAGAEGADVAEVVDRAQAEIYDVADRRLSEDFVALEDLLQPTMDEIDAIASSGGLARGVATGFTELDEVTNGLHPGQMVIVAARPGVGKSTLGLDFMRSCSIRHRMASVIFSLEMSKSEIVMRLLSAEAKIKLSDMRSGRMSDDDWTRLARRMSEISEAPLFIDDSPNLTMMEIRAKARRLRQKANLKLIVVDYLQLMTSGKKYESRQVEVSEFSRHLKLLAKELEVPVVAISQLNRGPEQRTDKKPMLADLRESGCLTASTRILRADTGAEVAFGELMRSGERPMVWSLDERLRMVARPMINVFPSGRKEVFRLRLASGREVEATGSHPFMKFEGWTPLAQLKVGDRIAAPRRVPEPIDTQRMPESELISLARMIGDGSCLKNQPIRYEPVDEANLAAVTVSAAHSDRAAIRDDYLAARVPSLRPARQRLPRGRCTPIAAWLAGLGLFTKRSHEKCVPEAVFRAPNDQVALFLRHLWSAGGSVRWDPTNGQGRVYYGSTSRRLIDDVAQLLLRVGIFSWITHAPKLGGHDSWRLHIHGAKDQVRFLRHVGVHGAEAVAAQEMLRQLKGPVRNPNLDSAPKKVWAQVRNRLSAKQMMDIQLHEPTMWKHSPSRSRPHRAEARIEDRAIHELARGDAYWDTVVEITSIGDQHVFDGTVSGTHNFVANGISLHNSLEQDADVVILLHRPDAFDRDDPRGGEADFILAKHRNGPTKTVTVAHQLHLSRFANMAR

[14] = target: T6, Protein RecA (Mycobacterium tuberculosis, UniProt P9WHJ3); experiment: Fluorescence Cell-Free Homogeneous Dose Retest to Identify Inhibitors of RecA-Intein Splicing Activity. [Related pubchem assays (depositor defined):AID2097, AID2223, AID489010, AID492950]; type: functional
T6 sequence (P9WHJ3 whole entry): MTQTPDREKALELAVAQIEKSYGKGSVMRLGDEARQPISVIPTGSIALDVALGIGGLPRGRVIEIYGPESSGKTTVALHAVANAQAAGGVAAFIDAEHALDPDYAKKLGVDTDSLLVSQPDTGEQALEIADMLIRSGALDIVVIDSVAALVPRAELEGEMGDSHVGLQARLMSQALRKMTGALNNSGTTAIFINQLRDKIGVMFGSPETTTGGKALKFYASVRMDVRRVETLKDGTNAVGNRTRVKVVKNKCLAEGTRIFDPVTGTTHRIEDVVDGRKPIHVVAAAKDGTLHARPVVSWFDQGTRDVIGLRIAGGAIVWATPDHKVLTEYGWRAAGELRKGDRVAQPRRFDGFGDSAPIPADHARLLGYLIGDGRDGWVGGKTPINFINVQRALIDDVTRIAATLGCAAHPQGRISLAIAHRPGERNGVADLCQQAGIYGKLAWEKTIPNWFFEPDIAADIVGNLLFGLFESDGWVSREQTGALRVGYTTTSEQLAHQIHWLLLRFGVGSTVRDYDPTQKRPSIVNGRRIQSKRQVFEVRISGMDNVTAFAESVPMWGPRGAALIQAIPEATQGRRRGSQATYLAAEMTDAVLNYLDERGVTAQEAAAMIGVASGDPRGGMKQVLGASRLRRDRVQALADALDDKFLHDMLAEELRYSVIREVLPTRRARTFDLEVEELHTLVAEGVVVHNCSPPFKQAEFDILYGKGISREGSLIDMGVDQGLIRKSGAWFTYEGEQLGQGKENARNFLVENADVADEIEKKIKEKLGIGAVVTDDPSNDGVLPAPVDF

[15] = Fluorescence-based cell-based high throughput dose response assay for inhibitors of the interaction of nucleotide-binding oligomerization domain containing 2 (NOD2) and the receptor-interacting serine-threonine kinase 2 (RIPK2).; type: functional; settings: Homo sapiens
[16] = target: Beta Lactamase (Pseudomonas aeruginosa, UniProt Q932Y6); experiment: beta-lactamase reporter inhibitor potency, dose response, artefact control for NOD2-RIPK2 interaction inhibitor project, BLA reporter cells, FRET fluorescence (AID 651552); type: functional, cell-based
[17] = target: T7, Delta-type opioid receptor (Homo sapiens, UniProt P41143); experiment: HTS Image-Based Screen for Antagonists of the DOR Receptor. [Related pubchem assays (depositor defined):AID1777, AID1785, AID1786, AID2133]; type: functional
[18] = target: Mu-type opioid receptor (Homo sapiens, UniProt P35372); experiment: HTS Image-Based Screen for Agonists of the MOR Receptor. [Related pubchem assays (depositor defined):AID1777, AID1785, AID1786, AID2133]; type: functional;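 further: imaging of beta-arrestin GFP recruitment into spots after receptor activation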
[19] = target: T7, Delta-type opioid receptor; experiment: HTS Image-Based Screen for Agonists of the DOR Receptor. [Related pubchem assays (depositor defined):AID1777, AID1786, AID2133]; type: functional
[20] = target: T8, Kappa-type opioid receptor (Homo sapiens, UniProt P41145); type: functional
[21] = target: Beta-galactosidase (Escherichia coli, UniProt Q8VNN2); type: functional
[22] = target: T8, Kappa-type opioid receptor; type: functional; remark: listed apart in the source
[23] = HeLa cell cytotoxicity, dose response, cytotoxicity control for MgcRacGAP inhibitor project (AID 624300); type: functional
[24] = target: T9, Rac GTPase-activating protein 1 (Homo sapiens, UniProt Q9H0H5); experiment: MgcRacGAP GTPase-activating activity inhibitors, confirmation, biochemical, ADP Hunter fluorescence, primary and confirmatory (AID 624330); type: functional
T9 sequence (Q9H0H5 whole entry): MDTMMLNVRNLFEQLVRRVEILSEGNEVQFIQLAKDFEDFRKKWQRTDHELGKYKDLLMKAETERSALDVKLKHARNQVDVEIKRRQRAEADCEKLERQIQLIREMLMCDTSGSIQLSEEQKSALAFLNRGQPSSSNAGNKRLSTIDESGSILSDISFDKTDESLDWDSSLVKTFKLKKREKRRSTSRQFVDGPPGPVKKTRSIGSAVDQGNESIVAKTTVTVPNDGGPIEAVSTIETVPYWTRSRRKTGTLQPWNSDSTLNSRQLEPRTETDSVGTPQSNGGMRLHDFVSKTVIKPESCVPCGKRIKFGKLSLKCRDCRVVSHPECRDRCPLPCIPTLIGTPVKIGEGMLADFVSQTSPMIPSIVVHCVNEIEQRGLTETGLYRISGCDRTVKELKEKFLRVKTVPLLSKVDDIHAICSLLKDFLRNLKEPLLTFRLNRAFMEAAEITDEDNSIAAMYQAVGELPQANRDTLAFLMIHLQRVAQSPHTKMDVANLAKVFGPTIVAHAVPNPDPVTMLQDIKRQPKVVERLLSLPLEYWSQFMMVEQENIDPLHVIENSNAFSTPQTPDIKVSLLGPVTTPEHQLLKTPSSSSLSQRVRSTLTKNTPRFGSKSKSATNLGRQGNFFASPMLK

T7 sequence (P41143 whole entry): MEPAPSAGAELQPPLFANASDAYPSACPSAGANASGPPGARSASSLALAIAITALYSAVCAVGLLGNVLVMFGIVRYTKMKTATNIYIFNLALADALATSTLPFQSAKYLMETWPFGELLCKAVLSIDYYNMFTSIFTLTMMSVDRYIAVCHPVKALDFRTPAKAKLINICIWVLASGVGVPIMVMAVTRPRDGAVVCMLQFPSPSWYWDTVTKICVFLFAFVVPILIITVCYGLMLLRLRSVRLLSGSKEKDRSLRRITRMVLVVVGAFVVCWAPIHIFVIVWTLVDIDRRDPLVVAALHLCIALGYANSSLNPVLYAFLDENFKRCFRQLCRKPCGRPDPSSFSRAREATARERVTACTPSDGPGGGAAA
T8 sequence (P41145 whole entry): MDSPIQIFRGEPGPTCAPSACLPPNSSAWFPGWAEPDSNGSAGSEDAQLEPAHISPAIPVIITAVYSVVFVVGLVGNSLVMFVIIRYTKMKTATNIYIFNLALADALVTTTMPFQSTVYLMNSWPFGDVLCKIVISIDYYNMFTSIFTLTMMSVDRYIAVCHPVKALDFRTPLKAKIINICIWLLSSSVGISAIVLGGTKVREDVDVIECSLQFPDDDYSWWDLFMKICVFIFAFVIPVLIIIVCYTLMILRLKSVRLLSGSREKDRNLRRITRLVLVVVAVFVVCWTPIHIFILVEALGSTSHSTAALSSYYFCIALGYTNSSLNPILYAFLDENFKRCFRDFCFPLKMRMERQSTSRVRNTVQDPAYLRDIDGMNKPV
T3 sequence (Q38C91 whole entry): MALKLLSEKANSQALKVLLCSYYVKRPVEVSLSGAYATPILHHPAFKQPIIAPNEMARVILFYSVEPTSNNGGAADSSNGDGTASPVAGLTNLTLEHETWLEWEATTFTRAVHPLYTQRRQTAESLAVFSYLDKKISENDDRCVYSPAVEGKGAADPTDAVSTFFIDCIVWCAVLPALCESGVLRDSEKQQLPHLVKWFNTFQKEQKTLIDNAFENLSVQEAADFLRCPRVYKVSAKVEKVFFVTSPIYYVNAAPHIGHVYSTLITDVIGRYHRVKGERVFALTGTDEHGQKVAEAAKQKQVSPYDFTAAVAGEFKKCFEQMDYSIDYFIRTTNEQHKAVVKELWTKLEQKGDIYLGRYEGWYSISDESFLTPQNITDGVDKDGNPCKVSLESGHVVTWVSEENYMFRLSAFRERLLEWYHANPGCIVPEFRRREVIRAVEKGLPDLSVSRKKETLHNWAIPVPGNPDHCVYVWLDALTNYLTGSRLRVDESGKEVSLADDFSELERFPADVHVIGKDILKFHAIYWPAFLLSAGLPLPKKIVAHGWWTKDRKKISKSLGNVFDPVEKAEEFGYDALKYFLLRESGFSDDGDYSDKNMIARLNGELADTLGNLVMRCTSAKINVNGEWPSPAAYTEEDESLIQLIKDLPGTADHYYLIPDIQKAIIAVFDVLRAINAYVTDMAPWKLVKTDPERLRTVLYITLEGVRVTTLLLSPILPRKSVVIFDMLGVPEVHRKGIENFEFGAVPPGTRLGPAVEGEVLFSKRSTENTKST
Beta Lactamase, sequence (Q932Y6 whole entry): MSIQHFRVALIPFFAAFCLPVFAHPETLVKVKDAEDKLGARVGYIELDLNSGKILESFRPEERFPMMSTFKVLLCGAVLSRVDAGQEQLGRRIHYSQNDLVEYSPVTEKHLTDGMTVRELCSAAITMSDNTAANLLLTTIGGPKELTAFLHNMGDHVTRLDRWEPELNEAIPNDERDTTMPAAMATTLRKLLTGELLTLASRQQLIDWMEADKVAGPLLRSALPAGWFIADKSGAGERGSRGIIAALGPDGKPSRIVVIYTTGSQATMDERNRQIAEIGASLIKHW
Nuclear receptor subfamily 5 group A member 2, sequence (O00482 whole entry): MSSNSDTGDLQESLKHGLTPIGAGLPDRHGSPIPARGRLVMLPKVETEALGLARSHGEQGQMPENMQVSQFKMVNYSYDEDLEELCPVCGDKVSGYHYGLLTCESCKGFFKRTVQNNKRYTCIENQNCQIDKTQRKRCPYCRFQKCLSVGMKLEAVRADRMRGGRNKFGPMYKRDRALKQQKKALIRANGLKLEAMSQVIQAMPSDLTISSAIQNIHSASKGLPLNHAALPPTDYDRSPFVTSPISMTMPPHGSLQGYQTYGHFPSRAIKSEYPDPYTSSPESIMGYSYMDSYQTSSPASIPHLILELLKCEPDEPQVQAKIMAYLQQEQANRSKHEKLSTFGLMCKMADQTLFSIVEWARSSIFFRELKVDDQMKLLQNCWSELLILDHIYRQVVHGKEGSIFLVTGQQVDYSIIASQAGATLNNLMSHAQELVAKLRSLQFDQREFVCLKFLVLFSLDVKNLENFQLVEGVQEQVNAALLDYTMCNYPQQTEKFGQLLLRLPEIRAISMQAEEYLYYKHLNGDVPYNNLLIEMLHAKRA
Mu-type opioid receptor, sequence (P35372 whole entry): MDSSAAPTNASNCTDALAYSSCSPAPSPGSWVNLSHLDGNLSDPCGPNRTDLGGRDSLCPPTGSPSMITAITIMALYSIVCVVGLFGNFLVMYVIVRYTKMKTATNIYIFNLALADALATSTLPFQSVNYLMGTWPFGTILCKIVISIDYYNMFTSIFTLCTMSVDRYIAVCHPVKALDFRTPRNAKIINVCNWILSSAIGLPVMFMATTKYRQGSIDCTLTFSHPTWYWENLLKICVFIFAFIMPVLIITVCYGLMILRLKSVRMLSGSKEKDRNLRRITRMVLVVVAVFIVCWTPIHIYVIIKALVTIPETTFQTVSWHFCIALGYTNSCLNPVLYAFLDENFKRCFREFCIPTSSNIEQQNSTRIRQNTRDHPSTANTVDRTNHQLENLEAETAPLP
Neurotensin receptor type 1, sequence (P30989 whole entry): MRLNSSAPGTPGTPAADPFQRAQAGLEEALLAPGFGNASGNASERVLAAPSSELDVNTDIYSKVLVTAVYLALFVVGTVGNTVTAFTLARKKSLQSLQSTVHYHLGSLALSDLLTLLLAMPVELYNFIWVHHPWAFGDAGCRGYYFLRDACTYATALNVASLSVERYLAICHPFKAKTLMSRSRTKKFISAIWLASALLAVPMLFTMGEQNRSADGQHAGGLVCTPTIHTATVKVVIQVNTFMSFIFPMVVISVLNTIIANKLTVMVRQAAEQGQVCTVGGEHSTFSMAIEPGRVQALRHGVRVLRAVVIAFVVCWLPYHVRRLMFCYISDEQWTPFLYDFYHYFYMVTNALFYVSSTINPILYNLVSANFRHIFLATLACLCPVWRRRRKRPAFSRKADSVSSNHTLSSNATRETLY
Beta-galactosidase, sequence (Q8VNN2 whole entry): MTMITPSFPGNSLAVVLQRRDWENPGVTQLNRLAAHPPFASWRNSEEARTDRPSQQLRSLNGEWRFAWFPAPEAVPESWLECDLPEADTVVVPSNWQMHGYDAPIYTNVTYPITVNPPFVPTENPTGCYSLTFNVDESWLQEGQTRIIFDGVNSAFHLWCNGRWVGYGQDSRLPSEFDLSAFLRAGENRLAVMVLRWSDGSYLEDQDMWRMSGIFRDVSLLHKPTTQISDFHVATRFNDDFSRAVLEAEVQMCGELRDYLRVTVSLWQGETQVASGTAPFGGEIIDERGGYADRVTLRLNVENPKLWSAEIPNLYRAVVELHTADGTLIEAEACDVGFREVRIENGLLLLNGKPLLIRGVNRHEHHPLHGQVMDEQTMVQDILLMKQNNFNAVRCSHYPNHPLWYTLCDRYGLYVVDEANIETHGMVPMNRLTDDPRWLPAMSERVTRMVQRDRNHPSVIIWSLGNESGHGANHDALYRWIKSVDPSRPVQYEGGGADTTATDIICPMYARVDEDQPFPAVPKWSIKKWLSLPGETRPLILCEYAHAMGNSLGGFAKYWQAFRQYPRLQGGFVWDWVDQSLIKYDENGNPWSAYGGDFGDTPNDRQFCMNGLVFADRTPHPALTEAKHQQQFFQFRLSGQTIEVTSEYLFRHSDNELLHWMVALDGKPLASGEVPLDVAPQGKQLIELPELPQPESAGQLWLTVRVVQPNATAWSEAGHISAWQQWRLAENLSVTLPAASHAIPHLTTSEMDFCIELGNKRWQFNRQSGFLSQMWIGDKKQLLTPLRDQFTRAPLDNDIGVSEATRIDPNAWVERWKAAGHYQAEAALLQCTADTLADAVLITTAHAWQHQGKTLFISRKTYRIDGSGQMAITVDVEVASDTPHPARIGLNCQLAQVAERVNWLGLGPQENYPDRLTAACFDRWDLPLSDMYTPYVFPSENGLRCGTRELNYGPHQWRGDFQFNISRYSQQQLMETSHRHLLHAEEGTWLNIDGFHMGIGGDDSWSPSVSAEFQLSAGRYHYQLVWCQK
Steroidogenic factor 1, sequence (Q13285 whole entry): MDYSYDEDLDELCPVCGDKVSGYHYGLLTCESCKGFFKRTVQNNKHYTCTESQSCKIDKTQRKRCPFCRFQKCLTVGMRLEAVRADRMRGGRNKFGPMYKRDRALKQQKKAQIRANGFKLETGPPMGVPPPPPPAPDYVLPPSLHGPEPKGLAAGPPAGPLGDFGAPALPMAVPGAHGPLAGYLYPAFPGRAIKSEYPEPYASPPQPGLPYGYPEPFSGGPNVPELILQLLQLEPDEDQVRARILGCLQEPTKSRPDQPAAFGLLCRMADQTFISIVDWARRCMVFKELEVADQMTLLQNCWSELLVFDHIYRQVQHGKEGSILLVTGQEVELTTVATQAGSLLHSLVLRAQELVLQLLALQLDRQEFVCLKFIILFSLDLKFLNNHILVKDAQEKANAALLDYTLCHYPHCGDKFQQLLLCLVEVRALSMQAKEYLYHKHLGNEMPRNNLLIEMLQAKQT

SMILES: CCOCC(=O)Nc1ccc(S(=O)(=O)NCCc2ccccc2)cc1
- IC50 [1]: 18.4 µM (inactive)
- IC50 [2]: 5.7 µM (active)
- IC50 [3]: 35.9 µM (inactive)

SMILES: COc1cccc(N2CCN(C(=O)c3ccc(CSc4nc5cc[nH]cc-5n4)cc3)CC2)c1
- IC50 [4]: > 80 µM (inactive)
- IC50 [5]: 14.3 µM (active)
- IC50 [6]: 65 µM (inactive)

SMILES: O=C(NCc1nc2ccccc2[nH]1)C1=C[C@@H](C2CCCCC2)C[C@@H](OCc2ccc(CO)cc2)O1
- AC50 [7]: 13.1 µM (active)
- IC50 [8]: 6.42 µM (active)
- IC50 [9]: 38.9 µM (inactive)
- IC50 [10]: 2.85 µM (active)

SMILES: Cn1ccnc1Sc1cc(NCCCO)c([N+](=O)[O-])c2nonc12
- EC50 [11]: 11.8 µM (active)
- EC50 [12]: 13.2 µM (active)
- AC50 [13]: 8.37 µM (active)
- EC50 [14]: 3.32 µM (active)
- IC50 [15]: 5.86 µM (active)
- IC50 [16]: 18.2 µM (inactive)

SMILES: COc1cc(/C=C/c2sc3ccccc3[n+]2CCCS(=O)(=O)[O-])ccc1O
- IC50 [17]: > 32 µM (inactive)
- EC50 [18]: > 32 µM (inactive)
- EC50 [19]: > 32 µM (inactive)
- IC50 [20]: 19.1 µM (active)
- EC50 [21]: 14.1 µM (active)
- IC50 [22]: > 32 µM
- AC50 [13]: > 380 µM (inactive)
- EC50 [14]: 16.2 µM (active)
- CC50 [23]: 100 µM (active)
- IC50 [24]: 20.5 µM (active)
